Data on 61 compounds can be found in PubChem BioAssay AID651733 (The Scripps Research Institute Molecular Screening Center, 2012).

SMILES strings stand for the structures. Activity calls are given as the source filed them. The rule behind the calls is not given here.

For the experiment, the target named is Perilipin-5 (Homo sapiens) + 1-acylglycerol-3-phosphate O-acyltransferase ABHD5 (Homo sapiens) (UniProt Q00G26+Q8WTS1). In words: ABHD5-PLIN5 interaction inhibitors, dose response, cell lysate, luminescence, proteins expressed in HEK293T (AID 651733).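 Note: split Gaussia princeps luciferase complementation between ABHD5 and MLDP fusion proteins.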
Sequence of Perilipin-5 (Homo sapiens) + 1-acylglycerol-3-phosphate O-acyltransferase ABHD5 (Homo sapiens) (Q00G26 whole entry, looked up, the tested form may be a part): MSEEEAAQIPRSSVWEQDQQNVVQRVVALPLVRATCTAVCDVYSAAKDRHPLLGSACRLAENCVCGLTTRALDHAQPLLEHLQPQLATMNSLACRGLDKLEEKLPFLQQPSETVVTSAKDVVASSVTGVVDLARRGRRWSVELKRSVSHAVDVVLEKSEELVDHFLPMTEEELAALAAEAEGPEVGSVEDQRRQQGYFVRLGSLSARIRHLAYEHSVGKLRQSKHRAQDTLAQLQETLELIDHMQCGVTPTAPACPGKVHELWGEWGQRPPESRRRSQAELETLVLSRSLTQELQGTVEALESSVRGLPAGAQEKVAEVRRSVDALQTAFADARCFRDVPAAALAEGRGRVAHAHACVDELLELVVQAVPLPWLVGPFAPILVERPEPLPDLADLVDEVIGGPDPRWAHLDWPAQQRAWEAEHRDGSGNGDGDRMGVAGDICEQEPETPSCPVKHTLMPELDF
Sequence of Perilipin-5 (Homo sapiens) + 1-acylglycerol-3-phosphate O-acyltransferase ABHD5 (Homo sapiens) (Q8WTS1 whole entry, looked up, the tested form may be a part): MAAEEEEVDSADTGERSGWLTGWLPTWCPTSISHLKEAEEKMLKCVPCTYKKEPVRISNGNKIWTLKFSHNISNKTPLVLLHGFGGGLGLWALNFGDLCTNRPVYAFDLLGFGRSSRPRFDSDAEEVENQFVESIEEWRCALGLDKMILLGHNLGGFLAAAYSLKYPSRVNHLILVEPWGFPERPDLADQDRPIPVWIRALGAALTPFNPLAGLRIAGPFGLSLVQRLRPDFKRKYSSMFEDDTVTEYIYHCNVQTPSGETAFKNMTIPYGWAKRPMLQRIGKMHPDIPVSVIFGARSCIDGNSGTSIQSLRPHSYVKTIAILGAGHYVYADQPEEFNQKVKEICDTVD
The IC50 is the point on the concentration scale where inhibition reaches its midpoint. In the case of `Cc1ccc(/C=C/C(=O)c2cc(Br)ccc2OC(=O)c2ccco2)cc1`, the half-inhibitory concentration (IC50) is 0.68 µM.
In the case of `O=[N+]([O-])/C=C/c1cn(Cc2ccc(F)cc2)c2ccccc12` it was 7.06 µM; in that of `COc1ccc(C(C(=O)NCc2ccccc2)n2c(=O)c(-c3ccco3)nc3ccccc32)cc1` (stereo unspecified), 5.37 µM.
To `CC(C)(C)NC(=O)C(c1ccccc1)n1c(=O)c(-c2ccco2)nc2ccccc21` (stereo unspecified) belongs 3.62 µM.
On to `Cc1ccc2nc3cc([N+](=O)[O-])cc([N+](=O)[O-])c3cc2c1`, for which the IC50 is 1.09 µM.
To `O=C(NCc1ccccc1)C(c1ccc(C(F)(F)F)cc1)n1c(=O)c(-c2ccco2)nc2ccccc21` (stereo unspecified) belongs 3.15 µM; to `Cc1cc(C)c(NC(=O)C[N+](C)(C)CC(O)COc2cccc3ccccc23)c(C)c1` (stereo unspecified), 8.93 µM.
In the case of `CC(=O)Nc1ccc(OCc2cn(CC(=O)c3ccc(O)cc3)nn2)cc1` it was 3.76 µM; in that of `C#CCN(C[C@@H]1[C@@H](OC(=O)NC2CCCC2)[C@@H](OC(=O)NC2CCCC2)Cn2c(=O)ccc(=O)n21)S(=O)(=O)c1ccc(C)cc1`, 7.83 µM; in that of `O=C(NC1CCCCC1)C(c1ccccc1F)n1c(=O)c(-c2ccco2)nc2ccccc21` (stereo unspecified), 4.15 µM.
`Oc1c(C(c2ccccc2)N2CCCCC2)ccc2ccccc12` (stereo unspecified): the concentration for half-maximal inhibition (IC50) was 1.73 µM.
To `COC/C=C/C1=CC2=CC(=O)C(C)(OC(=O)C3CCCC3)C(=O)C2=CO1` (stereo unspecified) belongs 3.88 µM; to `CC(C)(C)NC(=O)C(c1ccncc1)n1c(=O)c(-c2ccco2)nc2ccccc21` (stereo unspecified), 4.21 µM.
As to `COc1ccccc1-c1cc(C(=O)NC2CCN(C)CC2)c2ccc(Cl)c(C)c2n1`, the IC50 entry is “inactive”.
As for `O=C1NC(=O)N(Cc2ccc(F)cc2)C(=O)/C1=C\C=C\c1ccco1`, the IC50 was 2.29 µM.
Take `CCC(C(=O)OCCN(CC)CC)c1ccccc1` (stereo unspecified): the concentration for half-maximal inhibition (IC50) is 2.67 µM.
Regarding `COc1cc(C(C)=O)ccc1OCc1cn(CC(=O)c2ccc(O)cc2)nn1`, the IC50 is 5.81 µM.
In the case of `CSc1nnc(NC(=O)c2nc(S(=O)(=O)Cc3ccccc3F)ncc2Cl)s1` it was 3.66 µM.
Turning to `CC(O)CC(=O)OC[C@]12CC[C@H]3[C@@](C)(CC[C@H]4C(C)(C)CCC[C@]34C)[C@@H]1CC(C1=CC(=O)OC1O)O2` (stereo partly specified), the half-inhibitory concentration (IC50) was 1.37 µM.
In the case of `COCCNC(=O)/C(C#N)=C/c1cccc(/C=C(\C#N)C(=O)NCCOC)c1`, the IC50 was 1.09 µM.
In the case of `COc1ccc(NC(=S)N(CCCN2CCCC2)Cc2cccn2Cc2ccc(Cl)cc2)cc1Cl` it was “inactive”; in that of `O=c1[nH]c(C2CCN(S(=O)(=O)c3ccc(S(=O)(=O)NC4CC4)cc3)CC2)nc2c1nnn2Cc1ccc(F)cc1`, 2.39 µM; in that of `COc1ccc(/C=C\C(=O)CC(O)(c2ccccc2)C(F)(F)F)cc1` (stereo unspecified), 1.97 µM.
On to `C#CCN(C[C@@H]1[C@@H](OC(=O)NCC2CCCCC2)[C@@H](OC(=O)NCC2CCCCC2)Cn2c(=O)ccc(=O)n21)S(=O)(=O)c1ccc(C)cc1`, for which the half-inhibitory concentration (IC50) was 4.5 µM.
To `CCN(CC)CCOc1ccc(/C(=C(\Cl)c2ccccc2)c2ccccc2)cc1` belongs 2.39 µM; to `CN(C)CCOc1ccc(-c2c(-c3ccccc3)sc3ccccc23)cc1`, “inactive”.
On to `CC(=O)C1=C(c2cccc([N+](=O)[O-])c2)N(C(C)=O)n2c(C)nnc2S1`, for which the 50% inhibitory concentration (IC50) is 4.3 µM.
With `O=C(/C(=C/c1ccccc1)n1cncn1)c1ccc(Cl)cc1Cl`, the half-inhibitory concentration (IC50) was 2.13 µM.
On to `CSC(=Nc1ccccc1)N=C(SCc1ccccc1)N(C)C`, for which the concentration for half-maximal inhibition (IC50) is 1.19 µM.
As to `C#CCN(C[C@@H]1[C@@H](OC(=O)Nc2cccs2)[C@@H](OC(=O)Nc2cccs2)Cn2c(=O)ccc(=O)n21)S(=O)(=O)c1ccc(C)cc1`, the IC50 is 3.06 µM.
As to `CCCCCNC(=O)C(c1cccc2ccccc12)n1c(=O)c(-c2ccco2)nc2ccccc21` (stereo unspecified), the 50% inhibitory concentration (IC50) is 4.25 µM.
In the case of `COC(=O)c1ccc(Cn2cc(/C=C\[N+](=O)[O-])c3ccccc32)o1` it was “inactive”.
In the case of `CC1=CC2C(C(O)CC3(C)C2CC(C)C32OCOC23COCO3)C2(C)C/C(=C\O)C(=O)C=C12` (stereo unspecified) it was 3.6 µM.
To `CCCCCNC(=O)C(c1ccc(C#N)cc1)n1c(=O)c(-c2ccco2)nc2ccccc21` (stereo unspecified) belongs 6.63 µM; to `CCN1/C(=C/C=C/c2oc3ccc(-c4ccccc4)cc3[n+]2CC)Oc2ccc(-c3ccccc3)cc21`, 1.12 µM; to `CC(C)(C)NC(=O)C(c1ccc(C(F)(F)F)cc1)n1c(=O)c(-c2ccco2)nc2ccccc21` (stereo unspecified), 6.67 µM.
Take `Cc1ccc(CC2(OCCN(C)C)CCC(C(C)(C)C)CC2)cc1` (stereo unspecified): the half-inhibitory concentration (IC50) was 4.85 µM.
To `Cc1cccc(C)c1NC(=O)C(c1ccc(-c2ccccc2)cc1)n1c(=O)c(-c2ccco2)nc2ccccc21` (stereo unspecified) belongs 2.64 µM.
Regarding `CCN1C/C(=C/c2ccc(OC)c(O)c2)C(=O)/C(=C/c2ccc(OC)c(O)c2)C1`, the IC50 is 7.28 µM.
For the compound `CC1=CC(C)(C)Nc2ccc(OC(=O)CN3C(=O)c4cccc5cccc(c45)C3=O)cc21`, the IC50 result is “inactive”.
Take `CCCCn1c(SCC(=O)NCc2ccco2)nnc1-c1ccoc1C`: the IC50 was 6.5 µM.
To `CN1[C@@H]2CC[C@H]1CC(OC1c3ccccc3CCc3ccccc31)C2` (stereo partly specified) belongs 2.38 µM; to `COc1cc(C)c2sc3ccccc3c(=O)c2c1NCCN(C)C`, 3.94 µM.
To `CN1CCC[C@@H]1CCO[C@](C)(c1ccccc1)c1ccc(Cl)cc1` belongs 6.93 µM.
As for `CCCC(=O)NC(c1cccc([N+](=O)[O-])c1)c1ccc2cccnc2c1O` (stereo unspecified), the IC50 entry was “inactive”.
For `O=C(NCc1ccccc1)C(C1CC1)n1c(=O)c(-c2ccco2)nc2ccccc21` (stereo unspecified), the IC50 result was “inactive”.
To `CC(C)(C)NC(=O)C(C1CC1)n1c(=O)c(-c2ccco2)nc2ccccc21` (stereo unspecified) belongs 7.1 µM; to `O=C(NCc1ccccc1)C(c1ccccc1F)n1c(=O)c(-c2ccco2)nc2ccccc21` (stereo unspecified), 4.43 µM; to `Cc1ccc(S(=O)(=O)N2C[C@H]3n4c(=O)ccc(=O)n4C[C@H](OC(=O)Nc4cccs4)[C@@]3(O)C2)cc1`, 8.68 µM.
To `O=C(/C=C/c1ccc2c(c1)OCCCO2)c1ccccc1O` belongs 5.14 µM; to `CCN(CC)CCN(CC(=O)Nc1c(C)cc(C)cc1C)C(=O)c1ccccc1`, 3.93 µM; to `CCN(CC)CCNC(=O)c1ccc(NC(=O)c2cn(-c3ccccc3)nc2-c2cccs2)cc1`, “inactive”.
Turning to `O=C(NCc1ccccc1)C(c1cccc2ccccc12)n1c(=O)c(-c2ccco2)nc2ccccc21` (stereo unspecified), the IC50 is 4.2 µM.
In the case of `Cc1cccc(C)c1NC(=O)C(c1ccncc1)n1c(=O)c(-c2ccco2)nc2ccccc21` (stereo unspecified) it was “inactive”.
As for `O=C1NC(=O)N(c2ccccc2F)C(=O)/C1=C/c1ccc(Oc2ccc([N+](=O)[O-])cn2)cc1`, the 50% inhibitory concentration (IC50) is 7.53 µM.
`Cc1ccc(SC2=C(Sc3ccc(C)cc3)C(=O)c3ccccc3C2=O)cc1`: the IC50 result is “inactive”.
As to `C=C[C@]1(C)C[C@@H](OC(=O)CSCCN(CC)CC)[C@]2(C)C(C)CC[C@]3(CCC(=O)[C@H]32)[C@@H](C)[C@@H]1O` (stereo partly specified), the IC50 is 4.62 µM.
Take `COc1ccc(C)c2sc(N(CCN(C)C)C(=O)/C=C/c3cccs3)nc12`: the IC50 was > 13.3 µM (inactive).
In the case of `CSc1nnc(NC(=O)c2nc(S(=O)(=O)Cc3ccccc3)ncc2Cl)s1` it was 4.13 µM; in that of `CCC(=O)Nc1cccc(C(=O)/C=C/c2ccccc2)c1`, 3.05 µM.
Turning to `CCCCCCC=C1CCC(CN2CCCC2)C1=O` (stereo unspecified), the 50% inhibitory concentration (IC50) is 2.15 µM.
